Test results reported in patent US20250154686A1, “COMPOUND LIBRARY” (CHUGAI SEIYAKU KABUSHIKI KAISHA, priority 2021, published 2025).

Target: T1, Bcl-2 protein (Recombinant Human Bcl-2 Protein) (Homo sapiens, UniProt P10415)
T1 construct: purchased Novus Biologicals NBP2-34889
Assay: AS-MS evaluation of binding of the Example 4 mixture library (1200 compounds/well) to Bcl-2, ASMS ratio (%)
Procedure, shortened: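 A pooled 1200-compound mixture (20 nM each final) was incubated with 20 μM recombinant human Bcl-2 in pH 7.4 Tris-HCl buffer with NaCl, Tween-20 and DTT for 1 h at 23° C. in the dark. Bound ligands were separated by spin-column SEC and measured by reverse-phase LC/MS; ASMS ratio (%) was calculated against protein-free unfiltered standard and protein-free SEC blank.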

[1] = AS-MS, Example 4 mixture library, Bcl-2, replicate n = 1
[2] = AS-MS, Example 4 mixture library, Bcl-2, replicate n = 2
[3] = AS-MS, mixture of 1200 compounds/well, Bcl-2 protein, replicate n = 1
[4] = AS-MS, mixture of 1200 compounds/well, Bcl-2 protein, replicate n = 2
[5] = Example 4 mixture library, 1200 compounds/well, Bcl-2 protein, replicate n = 1, value belongs to the MS peak assignable to the compound
[6] = Example 4 mixture library, 1200 compounds/well, Bcl-2 protein, replicate n = 2, value belongs to the MS peak assignable to the compound

T1 sequence (P10415 whole entry): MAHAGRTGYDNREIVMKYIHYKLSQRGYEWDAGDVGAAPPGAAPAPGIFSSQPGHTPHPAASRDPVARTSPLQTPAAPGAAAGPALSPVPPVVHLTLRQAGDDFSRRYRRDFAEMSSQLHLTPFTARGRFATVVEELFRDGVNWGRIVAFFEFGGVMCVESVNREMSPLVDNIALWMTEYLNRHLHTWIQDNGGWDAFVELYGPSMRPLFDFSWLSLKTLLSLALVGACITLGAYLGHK

CCOc1cccc(-c2cc(CN3CCN(c4ccc(C(=O)NS(=O)(=O)c5ccc(NCCSc6ccccc6)c(C(F)(F)F)c5)nn4)CC3)cc(C(F)(F)F)c2)c1 [Compound B2R087-01]
ASMS ratio (%) n = 1 [1]: 3.8%
ASMS ratio (%) n = 2 [2]: 7.1%

CCOc1cncc(-c2cc(CN3CCN(c4ccc(C(=O)NS(=O)(=O)c5ccc(NCCSc6ccccc6)c(C(F)(F)F)c5)nn4)CC3)cc(C(F)(F)F)c2)c1 [Compound B2R088-01, 6-[4-[[3-(5-Ethoxypyridin-3-yl)-5-(trifluoromethyl)phenyl]methyl]piperazin-1-yl]-N-[4-(2-phenylsulfanylethylamino)-3-(trifluoromethyl)phenyl]sulfonylpyridazine-3-carboxamide]
ASMS ratio (%) n = 1 [1]: 35.3%
ASMS ratio (%) n = 2 [2]: 13.1%

CCOc1cccc(-c2cc(CN3CCN(c4ccc(C(=O)NS(=O)(=O)c5ccc(NCCSc6ccccc6)c(C(F)(F)F)c5)nn4)CC3)cc(OC(F)(F)F)c2)c1 [Compound B2R089-01, 6-[4-[[3-(3-Ethoxyphenyl)-5-(trifluoromethoxy)phenyl]methyl]piperazin-1-yl]-N-[4-(2-phenylsulfanylethylamino)-3-(trifluoromethyl)phenyl]sulfonylpyridazine-3-carboxamide]
ASMS ratio (%) n = 1 [1]: 3.4%
ASMS ratio (%) n = 2 [2]: −9.2%

CCOc1cncc(-c2cc(CN3CCN(c4ccc(C(=O)NS(=O)(=O)c5ccc(NCCSc6ccccc6)c(C(F)(F)F)c5)nn4)CC3)cc(OC(F)(F)F)c2)c1 [Compound B2R090-01, 6-[4-[[3-(5-Ethoxypyridin-3-yl)-5-(trifluoromethoxy)phenyl]methyl]piperazin-1-yl]-N-[4-(2-phenylsulfanylethylamino)-3-(trifluoromethyl)phenyl]sulfonylpyridazine-3-carboxamide]
ASMS ratio (%) n = 1 [1]: 22.4%
ASMS ratio (%) n = 2 [2]: 5.3%

CCOc1cccc(-c2ccc(CN3CCN(c4ccc(C(=O)NS(=O)(=O)c5ccc(NCCSc6ccccc6)c(C(F)(F)F)c5)nn4)CC3)c3ccccc23)c1 [Compound B2R091-01, 6-[4-[[4-(3-Ethoxyphenyl)naphthalen-1-yl]methyl]piperazin-1-yl]-N-[4-(2-phenylsulfanylethylamino)-3-(trifluoromethyl)phenyl]sulfonylpyridazine-3-carboxamide]
ASMS ratio (%) n = 1 [1]: −3.5%
ASMS ratio (%) n = 2 [2]: 1.8%

CCOc1cncc(-c2ccc(CN3CCN(c4ccc(C(=O)NS(=O)(=O)c5ccc(NCCSc6ccccc6)c(C(F)(F)F)c5)nn4)CC3)c3ccccc23)c1 [Compound B2R092-01, 6-[4-[[4-(5-Ethoxypyridin-3-yl)naphthalen-1-yl]methyl]piperazin-1-yl]-N-[4-(2-phenylsulfanylethylamino)-3-(trifluoromethyl)phenyl]sulfonylpyridazine-3-carboxamide]
ASMS ratio (%) n = 1 [1]: 16.0%
ASMS ratio (%) n = 2 [2]: −1.3%

CCOc1cccc(-c2csc(CN3CCN(c4ccc(C(=O)NS(=O)(=O)c5ccc(NCCSc6ccccc6)c(C(F)(F)F)c5)nn4)CC3)c2)c1 [Compound B2R093-01, 6-[4-[[4-(3-Ethoxyphenyl)thiophen-2-yl]methyl]piperazin-1-yl]-N-[4-(2-phenylsulfanylethylamino)-3-(trifluoromethyl)phenyl]sulfonylpyridazine-3-carboxamide]
ASMS ratio (%) n = 1 [1]: 56.5%
ASMS ratio (%) n = 2 [2]: 0.0%

CCOc1cncc(-c2csc(CN3CCN(c4ccc(C(=O)NS(=O)(=O)c5ccc(NCCSc6ccccc6)c(C(F)(F)F)c5)nn4)CC3)c2)c1 [Compound B2R094-01, 6-[4-[[4-(5-Ethoxypyridin-3-yl)thiophen-2-yl]methyl]piperazin-1-yl]-N-[4-(2-phenylsulfanylethylamino)-3-(trifluoromethyl)phenyl]sulfonylpyridazine-3-carboxamide]
ASMS ratio (%) n = 1 [1]: 18.8%
ASMS ratio (%) n = 2 [2]: 11.9%

CCOc1cccc(C#Cc2ccccc2CN2CCN(c3ccc(C(=O)NS(=O)(=O)c4ccc(NCCSc5ccccc5)c(C(F)(F)F)c4)nn3)CC2)c1 [Compound B2R095-01, 6-[4-[[2-[2-(3-Ethoxyphenyl)ethynyl]phenyl]methyl]piperazin-1-yl]-N-[4-(2-phenylsulfanylethylamino)-3-(trifluoromethyl)phenyl]sulfonylpyridazine-3-carboxamide]
ASMS ratio (%) n = 1 [1]: 42.2%
ASMS ratio (%) n = 2 [2]: 5.5%

CCOc1cccc(-c2ccc(C(C)N3CCN(c4ccc(C(=O)NS(=O)(=O)c5ccc(NCCSc6ccccc6)c(C(F)(F)F)c5)cc4)CC3)cc2)c1 (stereo not shown) [Compound B2R097-01, 4-[4-[1-[4-(3-Ethoxyphenyl)phenyl]ethyl]piperazin-1-yl]-N-[4-(2-phenylsulfanylethylamino)-3-(trifluoromethyl)phenyl]sulfonylbenzamide]
ASMS ratio (%) n = 1 [1]: 6.6%
ASMS ratio (%) n = 2 [2]: −7.8%

CCOc1cncc(-c2ccc(C(C)N3CCN(c4ccc(C(=O)NS(=O)(=O)c5ccc(NCCSc6ccccc6)c(C(F)(F)F)c5)cc4)CC3)cc2)c1 (stereo not shown) [Compound B2R098-01, 4-[4-[1-[4-(5-Ethoxypyridin-3-yl)phenyl]ethyl]piperazin-1-yl]-N-[4-(2-phenylsulfanylethylamino)-3-(trifluoromethyl)phenyl]sulfonylbenzamide]
ASMS ratio (%) n = 1 [1]: 9.2%
ASMS ratio (%) n = 2 [2]: 7.5%

CCOc1cccc(-c2ccc(C(C)N3CCN(c4ccc(C(=O)NS(=O)(=O)c5ccc(NCCSc6ccccc6)c(C(F)(F)F)c5)cc4)CC3)c(F)c2)c1 (stereo not shown) [Compound B2R099-01, 4-[4-[1-[4-(3-Ethoxyphenyl)-2-fluorophenyl]ethyl]piperazin-1-yl]-N-[4-(2-phenylsulfanylethylamino)-3-(trifluoromethyl)phenyl]sulfonylbenzamide]
ASMS ratio (%) n = 1 [1]: −12.6%
ASMS ratio (%) n = 2 [2]: −7.5%

CCOc1cncc(-c2ccc(C(C)N3CCN(c4ccc(C(=O)NS(=O)(=O)c5ccc(NCCSc6ccccc6)c(C(F)(F)F)c5)cc4)CC3)c(F)c2)c1 (stereo not shown) [Compound B2R100-01, 4-[4-[1-[4-(5-Ethoxypyridin-3-yl)-2-fluorophenyl]ethyl]piperazin-1-yl]-N-[4-(2-phenylsulfanylethylamino)-3-(trifluoromethyl)phenyl]sulfonylbenzamide]
ASMS ratio (%) n = 1 [1]: 0.6%
ASMS ratio (%) n = 2 [2]: 10.1%

CCOc1cccc(C#Cc2cc(C(=O)N3CCN(c4ccc(C(=O)N(C)CC56CC7CC(CC(C7)C5)C6)nn4)CC3)cc(C(F)(F)F)c2)c1 [Compound B3A019-01, N-(1-Adamantylmethyl)-6-[4-[3-[2-(3-ethoxyphenyl)ethynyl]-5-(trifluoromethyl)benzoyl]piperazin-1-yl]-N-methylpyridazine-3-carboxamide]
ASMS ratio (%) n = 1 [3]: 2.6%
ASMS ratio (%) n = 2 [4]: −2.3%

CCOc1cncc(C#Cc2cc(C(=O)N3CCN(c4ccc(C(=O)N(C)CC56CC7CC(CC(C7)C5)C6)nn4)CC3)cc(C(F)(F)F)c2)c1 [Compound B3A020-01, N-(1-Adamantylmethyl)-6-[4-[3-[2-(5-ethoxypyridin-3-yl)ethynyl]-5-(trifluoromethyl)benzoyl]piperazin-1-yl]-N-methylpyridazine-3-carboxamide]
ASMS ratio (%) n = 1 [3]: 7.5%
ASMS ratio (%) n = 2 [4]: −3.2%

CCOc1cncc(-c2ccc(C(=O)N3CCN(c4ccc(C(=O)N(CC)CC)nn4)CC3)cc2F)c1 [Compound B4J006-01, 6-[4-[4-(5-Ethoxypyridin-3-yl)-3-fluorobenzoyl]piperazin-1-yl]-N,N-diethylpyridazine-3-carboxamide]
ASMS ratio (%) n = 1 [5]: 0.0%
ASMS ratio (%) n = 2 [6]: 0.0%

CCOc1cccc(-c2cc(OC)c(CN3CCN(c4ccc(C(=O)N(CC)CC)cc4)CC3)c(OC)c2)c1 [Compound B4J059-01, 4-[4-[[4-(3-Ethoxyphenyl)-2,6-dimethoxyphenyl]methyl]piperazin-1-yl]-N,N-diethylbenzamide]
ASMS ratio (%) n = 1 [5]: −0.1%
ASMS ratio (%) n = 2 [6]: −6.0%

CCOc1cncc(-c2cc(OC)c(CN3CCN(c4ccc(C(=O)N(CC)CC)cc4)CC3)c(OC)c2)c1 [Compound B4J060-01, 4-[4-[[4-(5-Ethoxypyridin-3-yl)-2,6-dimethoxyphenyl]methyl]piperazin-1-yl]-N,N-diethylbenzamide]
ASMS ratio (%) n = 1 [5]: 0.0%
ASMS ratio (%) n = 2 [6]: 0.0%

CCOc1cccc(-c2ccc(CN3CCN(c4ccc(C(=O)N(CC)CC)nn4)CC3)cc2F)c1 [Compound B4J077-01, 6-[4-[[4-(3-Ethoxyphenyl)-3-fluorophenyl]methyl]piperazin-1-yl]-N,N-diethylpyridazine-3-carboxamide]
ASMS ratio (%) n = 2 [6]: 5.5%
